Measured values published in patent US7691838B2, “Method for treating diseases using HSP90-inhibiting agents in combination with antimitotics” (Kosan Biosciences Incorporated, priority 2003, dated 2010).
Like-named read-outs stand apart in the source and are kept apart here.

Columns and labels:
[1] = system: DLD-1 cells (human colorectal cancer cells); assay: MTS cell viability drug combination assay, combination index, DLD-1; format: cell-based; conditions: CI<1 synergism
Experimental: (§1) Human colon adenocarcinoma cell line, DLD-1, and human breast adenocarcinoma cell line, SKBr-3, were obtained from American Type Culture Collection (manassas, Va.). DLD-1 cells were maintained in RPMI 1640 medium supplemented with 10% fetal bovine serum, and SKBr-3 cells were cultured in McCoy's 5a medium supplemented with 10% fetal bovine serum. 17-DMAG and 17-AAG were obtained using published procedures. Other cytotoxic agents were purchased commercially from suppliers such as Sigma Chemical Co. (St. Louis, Mo.) and Sequoia Research Products (Oxford, UK).
(§2) Cells were seeded in duplicate in 96-well microtiter plates at a density of 5,000 cells per well and allowed to attach overnight. Cells were treated with 17-AAG or 17-DMAG and the corresponding antimitotic at varying concentrations, ranging from 0.5 picomolar (“pM”) to 50 micromolar (“μM”), for 3 days. Cell viability was determined using the MTS assay (Promega). For the drug combination assay, cells were seeded in duplicate in 96-well plates (5,000 cells/well). […] Based on the IC50 values of each individual drug, combined drug treatment was designed at constant ratios of two drugs, i.e., equivalent to the ratio of their IC50. Two treatment schedules were used: In one schedule, the cells were exposed to 24 hours of 17-AAG or 17-DMAG. The drug was then added to the cells and incubated for 48 hours. In another schedule, cells were exposed to the drug alone for 24 hours followed by addition of 17-AAG or 17-DMAG for 48 hours. Cell viability was determined by the MTS assay.
(§3) Synergism, additivity or antagonism was determined by median effect analysis using the combination index (CI) calculated using Calcusyn (Biosoft, Cambridge, UK). The combination index is defined as follows: CI=[D]1/[Dx]1+[D]2/[Dx]2
(§4) The quantities [D]1 and [D]2 represent the concentrations of the first and second drug, respectively, that in combination provide a response of x % in the assay. The quantities [Dx]1 and [Dx]2 represent the concentrations of the first and second drug, respectively, that when used alone provide a response of x % in the assay. Values of CI<1, CI=1, and CI>1 indicated drug-drug synergism, additivity, and antagonism respectively (Chou and Talalay 1984). The “enhancing” effect of two drugs can also be determined.
“Pre-administration” refers to the administration of 17-AAG to the cells before the administration of antimitotic; “post-administration” refers to the administration of 17-AAG to the cells after the administration of antimitotic.

[2] = system: SKBr-3 cells (human breast cancer cells); assay: MTS cell viability drug combination assay, combination index, SKBr-3; format: cell-based; conditions: CI<1 synergism
Experimental: as §1, §2, §3, §4

[3] = system: ErbB2-expressing cancer cells; conditions: ErbB2-expressing cancer cells in vitro; Citri et al. 2002; cited from earlier work
breast cancer cells = conditions: cited from earlier work
[4] = clinical trials, cited from earlier work
[5] = on administration; background statement; cited from earlier work
[6] = 17-AAG Post-Administration (antimitotic 24 h, then 17-AAG 48 h)
[7] = 17-AAG Pre-Administration (17-AAG 24 h, then antimitotic 48 h)

SMILES | CI value (combination index) of antimitotic with 17-AAG [1, 6] | CI value (combination index) of antimitotic with 17-AAG [1, 7] | CI value (combination index) of antimitotic with 17-AAG [2, 6] | CI value (combination index) of antimitotic with 17-AAG [2, 7] | also measured
CC(=O)O[C@@]12CO[C@@H]1C[C@H](O)[C@@]1(C)C(=O)[C@H](O)C3=C(C)[C@@H](OC(=O)[C@H](O)[C@@H](NC(=O)OC(C)(C)C)c4ccccc4)C[C@@](O)([C@@H](OC(=O)c4ccccc4)[C@H]21)C3(C)C [Docetaxel, docetaxel] | 0.29 ± 0.12 | 0.79 ± 0.15 | 0.59 ± 0.26 | 0.53 ± 0.11 | 
CC[C@]1(O)C[C@H]2CN(CCc3c([nH]c4ccccc34)[C@@](C(=O)OC)(c3cc4c(cc3OC)N(C=O)[C@H]3[C@@](O)(C(=O)OC)[C@H](OC(C)=O)[C@]5(CC)C=CCN6CC[C@]43[C@@H]65)C2)C1 [Vincristine, vincristine] | 0.42 ± 0.08 | 0.96 ± 0.3 | 0.99 ± 0.73 | 0.67 ± 0.37 | 
CC[C@]1(O)C[C@@H]2CN(CCc3c([nH]c4ccccc34)[C@@](C(=O)OC)(c3cc4c(cc3OC)N(C)[C@H]3[C@@](O)(C(N)=O)[C@H](O)[C@]5(CC)C=CCN6CC[C@]43[C@@H]65)C2)C1 [Vindesine, vindesine] | 0.68 ± 0.08 | 0.91 ± 0.41 |  |  | 
C=CC(=O)Nc1cc2c(Nc3ccc(F)c(Cl)c3)ncnc2cc1OCCCN1CCOCC1 [CI-1033] |  |  |  |  | combination effect on growth, with anti-ErB2 antibody Herceptin [3]: antagonistic effect
CC(=O)O[C@H]1C(=O)[C@@]2(C)[C@H]([C@H](OC(=O)c3ccccc3)[C@]3(O)C[C@H](OC(=O)[C@H](O)[C@@H](NC(=O)c4ccccc4)c4ccccc4)C(C)=C1C3(C)C)[C@]1(OC(C)=O)CO[C@@H]1C[C@@H]2O [paclitaxel] |  |  |  |  | apoptosis, combination with 17-AAG (breast cancer cells; coincident treatment with paclitaxel and 17-AAG, retinoblastoma protein-producing cells): synergistic apoptosis; apoptosis, combination with 17-AAG (breast cancer cells; paclitaxel followed by 17-AAG 4 hours later): synergistic effect similar to coincident treatment; apoptosis, combination with 17-AAG (breast cancer cells; pretreatment with 17-AAG followed by paclitaxel): abrogation of apoptosis
C=CCNC1=C2C[C@@H](C)C[C@H](OC)[C@H](O)[C@@H](C)/C=C(\C)[C@H](OC(N)=O)[C@@H](OC)/C=C\C=C(/C)C(=O)NC(=CC1=O)C2=O [17-AAG, 17-allylamino-17-desmethoxygeldanamycin] |  |  |  |  | sensitization of cells to cytotoxic effects of other drugs (breast cancer cells; cells in culture, Münster et al. 2001): sensitizes cells in culture to the cytotoxic effects of Paclitaxel and doxorubicin; MTD (maximum tolerated dose) ([4]; daily×5 schedule): about 40 mg/m^2; MTD (maximum tolerated dose) ([4]; once-weekly regimen): about 308 mg/m^2; MTD (maximum tolerated dose) ([4]; twice-weekly regimen): about 220 mg/m^2; hepatotoxicity [5]: reduced hepatotoxicity
C/C1=C/C[C@@H](/C(C)=C/c2csc(C)n2)OC(=O)C[C@H](O)C(C)(C)C(=O)[C@H](C)[C@@H](O)[C@@H](C)CCC1 [Epothilone D, epothilone D] | 0.61 ± 0.12 | 0.84 ± 0.06 | 0.58 ± 0.009 | 0.72 ± 0.07 | 
CC[C@]1(O)C[C@@H]2CN(CCc3c([nH]c4ccccc34)[C@@](C(=O)OC)(c3cc4c(cc3OC)N(C)[C@H]3[C@@](O)(C(=O)OC)[C@H](OC(C)=O)[C@]5(CC)C=CCN6CC[C@]43[C@@H]65)C2)C1 [Vinblastine, vinblastine] | 0.38 ± 0.11 | 0.92 ± 0.3 | 0.68 ± 0.41 | 0.39 ± 0.03 | 
COC1=C2C[C@@H](C)C[C@H](OC)[C@H](O)[C@@H](C)/C=C(\C)[C@H](OC(N)=O)[C@@H](OC)/C=C\C=C(/C)C(=O)NC(=CC1=O)C2=O [geldanamycin, Geldanamycin] |  |  |  |  | combination effect on growth, co-administration with CI-1033 [3]: additive effect; hepatotoxicity [5]: unacceptable hepatotoxicity
